# Data taken from patent US20090143317A1, “Quercetin Glycoside Composition and Method of Preparing the Same” (Suntory Limited, priority 2004, published 2009).
# How the values were obtained:
# [1] = in vivo; cited from earlier work
# [2] = Measurement of migration into the blood (orally administered in vivo absorbability); design: species or system SD male rats; details: rat, po, 150 umol/kg
# Description: Blood was collected from the tail vein 0 minutes (before the administration), 30 minutes, 1 hour, and 3 hours after the administration, and heparin was added thereto. Centrifugation was then performed, and, from the supernatant, heparin plasma samples were prepared. The concentrations of quercetin-glucuronide conjugate and quercetin in the prepared heparin plasma samples were measured by HPLC under the following conditions. AUC (Area under the curve) (0 to 3 hr) (μg/ml·hr) was then calculated based on the area under the curve of the plasma concentration of quercetin-glucuronide conjugate (μg/ml) and the area under the curve of the plasma concentration of quercetin (μg/ml). Quercetin-glucuronide conjugate and quercetin are both in vivo metabolites of isoquercitrin. […] Subsequently, in the same manner as in Experiment 1, plasma was prepared, and the plasma concentration of quercetin-glucuronide conjugate and that of quercetin were measured by HPLC. […] Subsequently, in the same manner as in Experiment 1, plasma was prepared, and the plasma concentration of quercetin-glucuronide conjugate and that of quercetin were measured by HPLC. AUC (Area under the curve) (0 to 3 hr) (μg/ml·hr) was then calculated based on the area under the curve of the plasma concentration of quercetin-glucuronide conjugate (μg/ml) and the area under the curve of the plasma concentration of quercetin (μg/ml). […]
Compound,absorbability [1],"migration into the blood (orally administered in vivo absorbability), AUC (0 to 3 hr) of plasma quercetin-glucuronide conjugate plus quercetin [2]"
"O=c1c(O[C@@H]2O[C@H](CO)[C@@H](O)[C@H](O)[C@H]2O)c(-c2ccc(O)c(O)c2)oc2cc(O)cc(O)c12 [IQC, quercetin 3-O-μ-D-glucopyranoside]",higher absorbability than quercetin and rutin,reduce absorbability
"O=c1c(O[C@@H]2O[C@H](CO)[C@@H](O)[C@H](O)[C@H]2O)c(-c2ccc(O[C@@H]3O[C@H](CO)[C@@H](O)[C@H](O)[C@H]3O)c(O)c2)oc2cc(O)cc(O)c12 [Quercetin-3,4′-β-D-glucoside]",higher absorbability,
O=c1c(OC2OC(CO)C(OC3OC(CO)C(O)C(O)C3O)C(O)C2O)c(-c2ccc(O)c(O)c2)oc2cc(O)cc(O)c12 (centres unmarked) [IQC-G1],,higher absorbability in this order
O=c1c(O)c(-c2ccc(O[C@@H]3O[C@H](CO)[C@@H](O)[C@H](O)[C@H]3O)c(O)c2)oc2cc(O)cc(O)c12 [Quercetin-4′-β-D-glucoside],higher absorbability,
